Results: article PMC7473970, “Preformulation Studies of a Stable PTEN-PDZ Lipopeptide Able to Cross an In Vitro Blood-Brain-Barrier Model as a Potential Therapy for Alzheimer’s Disease” (Pharmaceutical Research, 2020)
Residues, ends and D or L forms follow the SMILES beside them.

Key:
[1] = In vitro stability in 50% v/v mouse plasma; type: in vitro ADME; conditions: 37°C, HPLC-UV 220 nm, one phase decay, least square fit, n = 3
Experimental: CD-1 male mice (7 weeks old: Charles River Laboratories) were sacrificed with CO2, and blood was collected in K3E EDTA spray-coated vacutainers and kept on ice prior to centrifugation at 3000 rpm for 15 min at 4°C (Heraeus Multifuge 3sf). Mouse plasma samples were stored at −80°C before use in stability studies. Study was approved by the University of Portsmouth Animal Welfare and Ethical Review Body (UoP AWERB body, 817).
For testing, the plasma was diluted (1:1) in PBS without phenol and pre-warmed to 37°C. Peptides stocks (5 mM in DMSO) were prepared and maintained at −20°C before performing the stability studies. Peptide stock solutions (120 μL) were added to pre-warmed diluted plasma (50% v/v, 1080 μL) and maintained at 37°C with agitation (100 rpm: Grant Aqua Waterbath, Royston, UK). Samples (80 μL) were taken at 0, 3, 6,9, 15, 30, 45, 60, 90, 120, 180, 240, 360 and 1440 min, diluted with ice-cold acetonitrile (80 μL), vortexed and left in −80°C at least overnight to favor maximal protein precipitation. The samples were then vortexed again for 15 min (SciQuip microplate shaker, Shropshire, UK), centrifuged in a Thermo Sci Jouan B4i Centrifuge (Hemel Hampstead, UK) and the supernatant was transferred to an HPLC vial (200 μL).
(§1) The samples were analyzed at 40°C on a Phenomenex Lichrosorb RP8 C8 column (4.0 mm × 250 mm, 5 μm), using the gradient elution method on an Agilent HPLC system (Agilent Technologies, Cheadle, UK) equipped with an 1100 series degasser, quaternary pump, autosampler, and column heater, and attached to an Agilent 1200 series PDA detector and a 1250 series fluorescent detector. The flow rate was set at 1.2 mL min^-1, and the injection volume was set at 40 μL, while detection was performed at 220 nm. The mobile phase was a mixture of mobile phase A (0.1% TFA in water) and phase B (0.08% TFA in acetonitrile), and in the first 5 min, the mobile phase was an 8:2 ratio of A:B (v/v) and from 5 to 15 min the percentage of B was raised from 8:2 to 1:9 (v/v). Linear calibration curves were constructed for both peptides between 0.1–100 μg.mL^−1. The retention time for the human Lau–PTEN-PDZ, mouse Lau–PTEN-PDZ, human Myr–PTEN-PDZ, and mouse Myr–PTEN-PDZ was 12.03, 11.60, 13.68, and 13.91, respectively.

[2] = In vitro stability in 50% liver homogenate; type: in vitro ADME, mouse; conditions: 37°C, HPLC-UV 220 nm, one phase decay, least square fit, n = 3
Experimental: as §1
The liver and brain of the mice were excised from […] CD-1 male mice (7 weeks-old: Charles River Laboratories) sacrificed with CO2, and the tissue was frozen immediately with liquid nitrogen prior to storage at −80°C. The liver and brain tissue were thawed and homogenized on ice in PBS (2 mL/g of tissue) using a glass 3 mL tissue homogenizer (20 strokes per sample), and the liver and brain homogenates were centrifuged (Heraeus Multifuge 3sf, Fisher Scientific, Basingstoke, UK) at 4300 g for 60 min at 4°C and at 3000 g for 20 min at 4°C, respectively. The supernatant was stored at −80°C, diluted 1:1 (v/v) with PBS (1x, pH 7.4), and used in stability studies. Peptides stocks (5 mM in DMSO) were prepared and maintained at −20°C prior to performing stability studies. These stock solutions (120 μL) were added to the diluted pre-warmed (37°C) liver or brain homogenate (50% v/v, 1080 μL) with agitation (100 rpm: Grant Aqua Waterbath), and samples (80 μL) were taken at 0, 5, 10, 15, 30, 45, 60, 90, 120, 180, 240, 360 and 1440 min, and diluted with ice-cold acetonitrile (80 μL). Samples were vortexed and left at −80°C at least overnight to allow for maximum protein precipitation, the samples were vortexed again for 15 min, centrifuged and the supernatant was analyzed by HPLC as described above.
The total protein concentration in the homogenates was determined using the Bradford protein assay ([7],[15]) and BSA as a standard. Ten stock solutions of BSA were prepared in PBS between 0.1–1 mg mL^−1, and 40 μL of each of the diluted stocks were added to 1.2 mL of Bradford reagent and incubated at room temperature for 5 min. The absorbance was recorded at 595 nm using a Multiskan GO spectrophotometer and the SkanIt software (Thermo Scientific, Paisley, UK). A linear calibration curve was obtained in this range that was used to extrapolate the protein content of 1:100 v/v stock solutions of 50% mouse plasma, liver, and brain homogenates diluted in PBS.

[3] = 50% w/v mouse liver homogenate in PBS pH 7.4

In the case of `CCCCCCCCCCCCCC(=O)N[C@@H](CCC(N)=O)C(=O)N[C@@H](Cc1c[nH]cn1)C(=O)N[C@@H](CO)C(=O)N[C@@H](CCC(N)=O)C(=O)N[C@H](C(=O)N[C@H](C(=O)N[C@@H](CCCCN)C(=O)N[C@H](C(=O)O)C(C)C)[C@@H](C)O)[C@@H](C)CC` [Mouse Myr-PTEN-PDZ] (HELM PEPTIDE1{[CCCCCCCCCCCCCC(=O)[*:2]].Q.H.S.Q.I.T.K.V}$$$$V2.0), the k ([1]; 50% v/v CD-1 mouse plasma (K3 EDTA) in PBS, 120 μL of 5 mM DMSO stock in 1080 μL, 100 rpm, 0-1440 min) is reported as 0.80 h⁻¹, the “t1/2 (h)” value ([1]; 50% v/v mouse plasma in PBS) is reported as 0.87 h and the “t1/2 (min)” value ([1]; 50% v/v mouse plasma in PBS) is reported as 52.16 min. The k ([2]; 50% w/v CD-1 mouse liver homogenate in PBS pH 7.4, 120 μL of 5 mM DMSO stock in 1080 μL, 100 rpm, 0-1440 min) was 0.51 h⁻¹, the “t1/2 (h)” value [2, 3] was 1.36 h and the “t1/2 (min)” value [2, 3] was 81.66 min.
